Results from US20250368687A1, “SHORT SYNTHETIC PEPTIDES AND USES THEREOF IN THE TREATMENT OF ENTEROVIRUS INFECTION” (CITY UNIVERSITY OF HONG KONG, priority 2024, published 2025).

What was measured:
Type in all cases: cell-based
[1] = test system: Hsp27 and hnRNP A1 redistribution in RD cells; experiment: Immunofluorescence colocalization assay of Hsp27/hnRNP A1 redistribution, RD cells with or without EV-A71 infection; conditions: 25 μM for 2h; for redistribution of Hsp27 and hnRNP A1 in EV-A71-infected RD cells: EV-A71 MOI 40 for 6h
Method: (§1) The cells on coverslips were infected with EV-A71 at the multiplicity of infection (MOI) of 40 for 6 hrs to assure the high efficiency of viral infection. Then the cells were fixed by 4% paraformaldehyde for 20 min, permeabilized by 0.5% Triton X-100 for 15 min, blocked with 5% BSA for 2 hrs, and stained by incubation with anti-Hsp27 (GTX101145) and anti-hnRNP A1 (sc-32301) antibody, then with Alexa Fluor 488 conjugated anti-rabbit antibody and Alexa Fluor 594 conjugated anti-mouse antibody respectively. After washing four times with 0.2% Triton X-100, the nuclei were stained with DAPI or Hoechst for 5 min. The images were captured by a Nikon A1HD25 High speed and Large Field of View Confocal Microscope. Colocalization analysis was conducted using the JACoP-plugin of the extended ImageJ version Fiji. The M1 colocalization coefficient was computed to illustrate the colocalization levels of Hsp27 and hnRNP A1 overlapped with Hoechst.
Hsp27 is predominantly located in the cytoplasm, however, stress (e.g., heat shock, virus infection) can induce partial redistribution of Hsp27 from the cytoplasm to the nucleus, concomitantly with its phosphorylation. We thus postulated that the cellular redistribution of Hsp27 may be associated with its phosphorylation upon EV-A71 infection. To verify the hypothesis, RD cells were with SB203580 at 0, 2, 4, and 8 μM for 2 h, and the cells were infected with EV-A71 for 6 h. […] The colocalization of Hsp27 and DAPI, which stands for the level of redistribution of Hsp27, was also quantified. The colocalization coefficient M1 was computed as the fraction of Hsp27 colocalized with DAPI in the total Hsp27 area using the JACoP-plugin in FIJI.
We hypothesized that peptides S78 and S82A could interfere with Ser78 phosphorylation while peptides S78A (Ser78 replaced by Ala78) would not affect the phosphorylation of Ser78 of Hsp27. […] RD cells were pre-treated with peptide S78, S78A or S82A at the concentrations of 25 μM for 2h and then infected with or without EV-A71 at an MOI of 40 for 6h.

[2] = test system: EV-A71 IRES activity; experiment: Dual-luciferase IRES reporter assay in HEK 293T cells pre-treated with peptides; conditions: 25 μM for 2 hours, 24 h (FIG. 11A)
Method: (§2) FIGS. 10A-10K. Peptide S78 inhibited EV-A71 replication and propagation. (FIG. 10A) RD cells were pre-treated with peptides S78 or for 2 hours and infected with EV-A71 at the MOI of 10 for 6 hours. Cell lysates were collected for western blot assay. Hsp27 phosphorylation on Ser 15, 78, 82 were detected by specific antibodies. β-Actin were detected as internal control. (FIG. 10B) Densitometric analysis of FIG. 9A. (FIG. 10C) HEK 293T cells were pre-treated with peptides S78 or S78A at the concentration of 25 μM for 2 hours and then co-transfected with Hsp27-WT plasmid (800 ng), pIRES reporter plasmid (200 ng) and 2A^pro-expressing plasmid or 2AC110A-expressing plasmid (200 ng) for 24 h, then the luciferase activity was measured. (FIG. 10D-10E) RD cells were treated with peptides S78 or S78A and then infected with EV-A71. EV-A71 VP1 were detected. (FIG. 10F) RD cells were treated with peptides and then infected with EV-A71 at the MOI of 1 for 12 hours. The EV-A71-induced CPE was captured. (FIG. 10G-10H) Intracellular viral RNA was extracted and quantified by qPCR. (FIG. 10I) Densitometric analysis FIG. 9D-E. (FIG. 10J) RD cells were treated with peptides S78 or and then infected with EV-A71 at the MOI of 1 for 12 hours. Extracellular viral RNA was extracted and quantified by qPCR. (FIG. 10K) Viral titration was calculated by TCID50. The Statistical analyses were carried out using Student's t-test. *: p<0.05, **: p<0.01, ***: p<0.001. Data are expressed as mean ±SD.
(§3) FIGS. 11A-11G Inhibition of EV-A71 Protein Translation and Viral Reproduction by peptide S82A. (FIG. 11A) HEK 293T cells were pre-treated with peptides NC, S78, S78A, S82A, or S78-3A at the concentration of 25 μM for 2 hours and then co-transfected with Hsp27-WT plasmid (800 ng), pIRES reporter plasmid (200 ng) and 2A^pro-expressing plasmid for 24 h, then the luciferase activity was measured. (FIG. 11B) RD cells were pre-treated with peptides NC at indicated concentrations for 2 hours and infected with EV-A71 at the MOI of 1 for 9 hours. Intracellular viral RNA was extracted and quantified by qPCR. […] EV-A71 VP1 were detected. β-Actin was detected as an internal control. (FIG. 11F) Densitometric analysis of the EV-A71 VP1 level in FIG. S7C-E was quantified and normalized with β-Actin using ImageJ. […] Viral titration was calculated. […] Data are expressed as mean ±SD.
HEK 293T cells were seeded in 24-wells, and then co-transfected with plasmids to simultaneously express 2A^pro (200 ng), pIRES reporter (200 ng), and the wild-type Hsp27 or its mutants (800 ng). […] The Renilla luciferase (RLuc) and Firefly luciferase (FLuc) activity were determined by using a dual-luciferase reporter assay (Promega) according to the manufacturer's instructions in a Lumat LB9507 bioluminometer.

[3] = test system: EV-A71 VP1; experiment: Western blot of EV-A71 VP1 level in RD cells; conditions: for reduction of VP1 level (densitometric assay): 50 μM; for EV-A71 VP1 protein level (in words): indicated concentrations
Method: as §2
FIGS. 11A-11G Inhibition of EV-A71 Protein Translation and Viral Reproduction by peptide S82A. (FIG. 11A) HEK 293T cells were pre-treated with peptides NC, S78, S78A, S82A, or S78-3A at the concentration of 25 μM for 2 hours and then co-transfected with Hsp27-WT plasmid (800 ng), pIRES reporter plasmid (200 ng) and 2A^pro-expressing plasmid for 24 h, then the luciferase activity was measured. (FIG. 11B) RD cells were pre-treated with peptides NC at indicated concentrations for 2 hours and infected with EV-A71 at the MOI of 1 for 9 hours. Intracellular viral RNA was extracted and quantified by qPCR. (FIG. 11C-11E) RD cells were treated with peptides NC, S82A, or S78-3A at indicated concentrations for 2 hours and then infected with EV-A71 at the MOI of 1 for 9 hours. Cell lysates were collected for western blot assay. EV-A71 VP1 were detected. β-Actin was detected as an internal control. (FIG. 11F) Densitometric analysis of the EV-A71 VP1 level in FIG. S7C-E was quantified and normalized with β-Actin using ImageJ. (FIG. 11G) RD cells were treated with peptides S78, S78A, S82A, or S78-3A at the concentration of 25 μM for 2 hours and then infected with EV-A71 at the MOI of 0.1 for 24 hours. Viral titration was calculated. The Statistical analyses were carried out using Student's t-test. *: p<0.05, **: p<0.01, ***: p<0.001. Data are expressed as mean ±SD.
After cell lysis in Nonidet-P40 (NP-40) buffer, the cell lysates were centrifuged, and the concentration was determined by Bradford assay (Bio-Rad). 20 μg of protein was used for 12% SDS-PAGE and transferred onto polyvinylidene fluoride membrane (PVDF) (GE, MA, USA). Following 5% bovine serum albumin (BSA) blocking for 1 hrs, the membrane was incubated with antibodies (1:1000) against Hsp27 (sc-13132), pHsp27-Ser15 (ab76313), pHsp27-Ser78 (ADI-SPA-523), pHsp27-Ser82 (ab155987), VP1 (GTX132339), β-Actin (sc-47778), hnRNP A1 (sc-32301), or GAPDH (sc-32233) overnight in 4° C. After secondary antibodies (HRP-conjugated Affinipure Goat Anti-Mouse IgG(H+L), SA00001-1, and HRP-conjugated Affinipure Goat Anti-Rabbit IgG(H+L), SA00001-2) incubation for 1 hrs, the protein was visualized with a chemiluminescence reagent (PerkinElmer, MA, USA) on Bio-Rad Chemidoc Imaging System. The protein bands were quantified by densitometry with ImageJ if necessary.

[4] = test system: EV-A71; experiment: Virus titration (TCID50); conditions: 25 μM for 2 hours, EV-A71 MOI 0.1 for 24 hours, RD cells (FIG. 11G)
Method: as §2, with “The Statistical analyses were carried out using Student's t-test. *: p<0.05, **: p<0.01, ***: p<0.001.” left out
as §3, with “(FIG. 11B) RD cells were pre-treated with peptides NC at indicated concentrations for 2 hours and infected with EV-A71 at the MOI of 1 for 9 hours.” left out, “±SD. […]” for “±SD.”

[5] = test system: RD cells; experiment: CCK-8 assay; conditions: data not shown
Method: (§4) RD cells were seeded in 96-well cell plates (1×10^4/well) and placed in the 5% CO2 incubator for 1 day. Then the cells were treated with peptides for 2 days. 90 μl medium and 10 μl of CCK-8 (BioSharp, BS350B) was added to each well of the 96-well plate, which were incubated at 37° C. for 1 h. A microplate reader (BioTek, Synergy H1) was used to measure the OD value of each well at 450 nm.

[6] = test system: 2Apro-induced relocalization of Hsp27 and hnRNP A1 in RD cells; experiment: Immunofluorescence colocalization assay of 2Apro-induced relocalization of Hsp27 and hnRNP A1; conditions: 25 μM for 2 hours, transfected with 2Apro for 24 hours
Method: FIGS. 9A-9B Peptide S78 blocks the 2A^pro-induced relocalization of Hsp27 and hnRNP A1. RD cells on the coverslips were treated with peptides (S78, S78A, and S82A) at the concentration of 25 μM for 2 hours, and then transfected with 2A^pro for 24 hours. The cells were fixed and stained with anti-Hsp27and anti-hnRNPAI, followed by Alexa Fluor 488-conjugated anti-rabbit antibody and Alexa Fluor 594-conjugated anti-mouse antibody. The nuclei were stained with Hoechst. The images were captured by Nikon A1HD25 Confocal Microscope. The JACoP-plugin of the extended ImageJ version Fiji was used to compute the M1 colocalization coefficient, in which (FIG. 9A) is M1 colocalization coefficient for the fraction of Hsp27 in Hoechst and (FIG. 9B) is the M1 colocalization coefficient for the fraction of hnRNP A1 in Hoechst. Statistical analyses were carried out using Student's t-test. *: p<0.05, **: p<0.01, ***: p<0.001. Data are expressed as mean ±SD.
as §1

[7] = CCK-8 assay; conditions: human; RD cells, data not shown
Method: as §4

Substance | redistribution of Hsp27 and hnRNP A1 in EV-A71-infected RD cells [1] | effect on viral IRES activity (in words) [2] | reduction of VP1 level (densitometric assay) [3] | EV-A71 VP1 protein level (in words) [3] | effect on viral titer (in words) [4] | CC50 (in words) [5] | localization of Hsp27 and hnRNP A1 in mock RD cells ([1]; without EV-A71) | 2Apro-induced relocalization of Hsp27 and hnRNP A1 [6] | CC50 at 2 days [7] [µM]
Ac-RKKRRQRRRAYSRAAAAQLSS-NH2 [S78-3A] | partially suppressed | mildly decreased | about 60% | much weaker | mildly decreased | high | – | – | –
Ac-RKKRRQRRRAYSRALSRQLAS-NH2 [S82A] | dramatically blocked | – | > 90% | a little bit weaker inhibition | – | – | not affected | almost completely blocked | > 600
